Reference: patent US4657911A, “3-amino quinuclidine derivatives and the application thereof as accelerators of gastro-intestinal motor function” (Delalande S.A., priority 1982, dated 1987)
Counter-ions that a name gives are not always drawn. Like-named read-outs stand apart in the source and are kept apart here.

Assays:
[1] = acute toxicity in mice, method of MILLER and TAINTER; details: mouse, in vivo, ip
Description: In addition, the acute toxicity in mice was evaluated according to the method of MILLER and TAINTER described in Proc. Soc. Exp. Biol. Med. 57 261 (1944).

total transit = total transit test in rats; assay type: in vivo; details: Rattus norvegicus, po, read-out: % animals having completely evacuated the balls after 24 hours; for responders at 10 mg/kg: dose 10 mg/kg p.o.
Description: by the total transit test in rats, carried out according to the following method: The compounds of the invention were administered orally simultaneously with 20 steel balls to wakeful rats having eaten nothing for 20 hours. The fast was broken immediately after the administration and the compounds of the invention were administered a second time at the same dose after a period of 7 hours. The total transit was evaluated 24 hours after the first administration of the compounds to be tested by the percentage of the animals having evacuated all the balls in the faeces, the balls being counted by radiological examination.

gastric evacuation = gastric evacuation test on rats; assay type: in vivo; details: rats fasted 20 hours, 20 steel balls
Description: by the gastric evacuation test on rats, carried out with the following method: The compounds of the invention are administered orally together with 20 steel balls to wakeful rats having eaten nothing for 20 hours. The action on the gastric evacuation of the tested compounds was evaluated 90 minutes after administration thereof by the percentage of animals whose stomach contained no balls, these balls being counted by radiological examination.

[2] = rats, second administration at same dose after 7 hours, 24 hours
[3] = rats, dose 1 mg/kg p.o., second administration at same dose after 7 hours, 24 hours

Row | SMILES | LD50 ([1]; Table III) [mg/kg] | responders at 1 mg/kg (total transit; [3]) [%] | further results
1 | COc1ccc(Br)cc1C(=O)NC1CN2CCC1CC2 (stereo not shown) [compound 18] | 160 | – | responders at 1 mg/kg (total transit; 24 h): 38%
2 | O=C(NC1CN2CCC1CC2)c1ccccc1F (stereo not shown) [compound 6] | 150 | – | responders at 10 mg/kg (total transit; [2]): 55%
3 | O=C(NC1CN2CCC1CC2)c1cccc(Cl)c1 (stereo not shown) [compound 20] | 145 | 50 | –
4 | COc1cccc(C(=O)NC2CN3CCC2CC3)c1 (stereo not shown) [Code number 3] | – | – | % animals whose stomach contained no ball after 90 minutes (gastric evacuation; dose 2.5 mg/kg p.o.): 100%; LD50 ([1]; Table II): 110 mg/kg
5 | COc1cc(N)c(Cl)cc1C(=O)NC1CN2CCC1CC2 (stereo not shown) [Code number 2, N-(3-quinuclidinyl)4-amino 5-chloro 2-methoxy benzamide, maleate] | – | 64 | % animals whose stomach contained no ball after 90 minutes (gastric evacuation; dose 5 mg/kg p.o.): 75%; % animals whose stomach contained no ball after 90 minutes (gastric evacuation; dose 10 mg/kg p.o.): 100%; LD50 ([1]; Table II): 105 mg/kg
6 | COc1ccc(F)cc1C(=O)NC1CN2CCC1CC2 (stereo not shown) [compound 17] | 140 | 57 | –
7 | O=C(NC1CN2CCC1CC2)c1cccc(F)c1 (stereo not shown) [Code number 5, N-(3-quinuclidinyl)3-fluoro benzamide, oxalate] | – | – | % animals whose stomach contained no ball after 90 minutes (gastric evacuation; dose 2.5 mg/kg p.o.): 100%; LD50 ([1]; Table II): 140 mg/kg
8 | COc1cc(N)c(Cl)cc1C(=O)N(C)C1CN2CCC1CC2 (stereo not shown) [compound 24] | 70 | 38 | –
9 | COc1ccccc1C(=O)NC1CN2CCC1CC2 (stereo not shown) [compound 7] | 150 | – | responders at 10 mg/kg (total transit; [2]): 50%
10 | COc1cc(N)c(Cl)cc1C(=S)N(C)C1CN2CCC1CC2 (stereo not shown) [compound 25] | 80 | 44 | –
11 | COc1cc(N)c(Cl)cc1C(=S)NC1CN2CCC1CC2 (stereo not shown) [compound 22] | 300 | 63 | –
12 | COc1nc(N)ncc1C(=O)NC1CN2CCC1CC2 (stereo not shown) [Code number 1] | 300 | – | responders at 10 mg/kg (total transit; [2]): 50%
13 | COc1cc(NC(C)=O)c(Cl)cc1C(=O)N(C)C1CN2CCC1CC2 (stereo not shown) [compound 23] | 50 | 38 | –
